The source of these data is US20110124588A1, “SYNERGISTIC ACTIVE INGREDIENT COMBINATIONS” (Bayer Cropscience AG, priority 2008, published 2011).

Read-outs that look alike come from different tables or passages of the source.

Assay [1] concerns Tetranychus urticae. Description: Tetranychus urticae test (OP-resistant/spray treatment). In kind it is in vivo, greenhouse red spider mite (Tetranychus urticae). The settings on record: for pest or weed control at 0.8 g/ha / pest or weed control at 20 g/ha / pest or weed control at 4 g/ha / pest or weed control at 100 g/ha: Tetranychus urticae. From the text: (§1) The expected activity of a given combination of two active compounds can be calculated as follows, according to S. R. Colby, Weeds 15 (1967), 20-22:
(§2) X is the kill rate, expressed as a percentage of the untreated control, when employing active compound A at an application rate of m g/ha or in a concentration of m ppm, Y is the kill rate, expressed as a percentage of the untreated control, when employing active compound B at an application rate of n g/ha or in a concentration of n ppm and E is the kill rate, expressed as a percentage of the untreated control, when employing active compounds A and B at application rates of m and n g/ha or in a concentration of m and n ppm, then
(§3) If the actual kill rate exceeds the calculated value, the kill of the combination is superadditive, i.e. a synergistic effect is present. In this case, the actually observed kill rate must exceed the value calculated using the above formula for the expected kill rate (E).
(§4) solvents: 78 parts by weight of acetone • • 1.5 parts by weight of dimethylformamide emulsifier: 0.5 part by weight of alkylaryl polyglycol ether
(§5) To produce a suitable preparation of active compound, 1 part by weight of active compound is mixed with the stated amounts of solvents and emulsifier, and the concentrate is diluted with emulsifier-containing water to the desired concentration.
Discs of bean leaves (Phaseolus vulgaris) which are infested by all stages of the greenhouse red spider mite (Tetranychus urticae) are sprayed with an active compound preparation of the desired concentration.
After the desired period of time, the activity in % is determined 100% means that all spider mites have been killed; 0% means that none of the spider mites have been killed.

Assay [2] concerns Phaedon cochleariae. Description: Phaedon cochleariae larvae test (sprayed cabbage leaves). In kind it is in vivo, mustard beetle (Phaedon cochleariae) larvae. As for the experimental part: as §3
Solvents: 78 parts by weight of acetone • • 1.5 parts by weight of dimethylformamide Emulsifier: 0.5 part by weight of alkylaryl polyglycol ether
After the desired period of time, the kill in % is determined 100% means that all beetle larvae have been killed; 0% means that none of the beetle larvae have been killed. The kill rates determined are entered into Colby's formula.

The test system of assay [3] is Spodoptera frugiperda. As to the kind of experiment: Spodoptera frugiperda larvae test (sprayed cabbage leaves). Type of assay: in vivo, army worm (Spodoptera frugiperda) larvae. The settings on record: for pest or weed control at 0.8 g/ha / pest or weed control at 4 g/ha / pest or weed control at 0.16 g/ha / pest or weed control at 20 g/ha / pest or weed control at 100 g/ha: Spodoptera frugiperda.
Source text: as §1, §2, §3, §4, §5
Cabbage leaves (Brassica oleracea) are treated by spraying with the active compound preparation of the desired concentration and are populated with larvae of the army worm (Spodoptera frugiperda) while the leaves are still moist.
After the desired period of time, the kill in % is determined 100% means that all caterpillars have been killed; 0% means that none of the caterpillars have been killed. The kill rates determined are entered into Colby's formula.

Assay [4] has as its system Myzus persicae. As to the kind of experiment: Myzus persicae test (spray treatment of infested cabbage leaves). In kind it is in vivo, green peach aphid (Myzus persicae). As for the experimental part: as §3, §4
After the desired period of time, the kill in % is determined 100% means that all aphids have been killed; 0% means that none of the aphids have been killed. The kill rates determined are entered into Colby's formula.

The mark [5] stands for this setting: single active compound, 100 g/ha, 6 d.
[6] abbreviates: single active compound, 4 g/ha, after 6 d.
Where [7] appears, read: Myzus persicae, 24 h, read-out: Kill in % after 1 d.
Setting [8] is: Myzus persicae, 144 h, read-out: Kill in % after 6 d.
[9] abbreviates: 144 h, read-out: Kill in % after 6 d.
The mark [10] stands for this setting: Phaedon cochleariae, 144 h, single active compound, 0.8 g/ha, 6 d, read-out: Kill in % after 6 d.
Setting [11] is: Phaedon cochleariae, 144 h, single active compound, 6 d, read-out: Kill in % after 6 d.
Setting [12] is: 48 h, read-out: Kill in % after 2 d.
Setting [13] is: Phaedon cochleariae, 48 h, single active compound, 2 d, read-out: Kill in % after 2 d.
The mark [14] stands for this setting: 48 h, single active compound, 4 g/ha, after 2 d, read-out: Kill in % after 2 d.
Setting [15] is: Phaedon cochleariae, 144 h, single active compound, 100 g/ha, 6 d, read-out: Kill in % after 6 d.

`Cc1cc(C)c([S+]([O-])CC(F)(F)F)cc1-n1cnc(C(F)(F)F)n1` (centres unmarked) [II-29-31, 1-{2,4-dimethyl-5-[(2,2,2-trifluoroethyl)sulphinyl]phenyl}-3-(trifluoromethyl)-1H-1,2,4-triazole]: the pest or weed control at 0.8 g/ha in assay [1] (144 h, single active compound, 0.8 g/ha, after 6 d, read-out: Kill in % after 6 d) was found to be 60%.

As for `CSC(=O)O/C(=C(/C#N)c1ccc(Cl)cc1)c1ccccc1C(F)(F)F` [IKA 2002], the figures for the “Kill in % after 6 d” value in assay [2] (setting [5]), in assay [3] (setting [5]) and in assay [1] (setting [6]) were 0%, 0% and 70%, respectively.

Regarding `Cc1ccc(/N=C/N(C)/C=N/c2ccc(C)cc2C)c(C)c1` [amitraz], the pest or weed control at 0.8 g/ha in assay [4] (setting [7]) was found to be 0%. Moreover, in assay [4] (setting [8]), the pest or weed control at 4 g/ha turned out to be 0%. In addition, the pest or weed control at 20 g/ha in assay [1] (setting [9]) was 80%.

As for `Cc1c(COC(=O)C2C(/C=C(\Cl)C(F)(F)F)C2(C)C)cccc1-c1ccccc1` (centres unmarked) [bifenthrin], the pest or weed control at 0.032 g/ha in assay [4] (setting [8]) turned out to be 0%. In addition, the pest or weed control at 0.8 g/ha in assay [2] (setting [10]) came out at 50%; in assay [3] (setting [9]), 0%. Also, the pest or weed control at 4 g/ha in assay [1] (setting [9]) is 40%.

Turning to `CCOCn1c(-c2ccc(Cl)cc2)c(C#N)c(Br)c1C(F)(F)F` [chlorfenapyr], the pest or weed control at 0.8 g/ha in assay [2] (setting [10]) was 0%. Further, the pest or weed control at 4 g/ha in assay [2] (setting [11]) amounted to 83%; in assay [3] (setting [12]) it was 67%; in assay [1] (setting [12]) it was 50%.

With `CC(c1ccc(Cl)nc1)S(C)(=O)=NC#N` (centres unmarked) [compound (I-5)], the pest or weed control at 0.16 g/ha in assay [4] (Myzus persicae, 24 h, single active compound, 0.16 g/ha, 1 d, read-out: Kill in % after 1 d) was found to be 0%; in assay [4] (Myzus persicae, 144 h, single active compound, 0.16 g/ha, 6 d, read-out: Kill in % after 6 d) it was 0%; in assay [3] (48 h, single active compound, 0.16 g/ha, 2 d, read-out: Kill in % after 2 d), 0%. Besides, the pest or weed control at 0.8 g/ha in assay [4] (Myzus persicae, 24 h, single active compound, 0.8 g/ha, 1 d, read-out: Kill in % after 1 d) came out at 0%; in assay [4] (Myzus persicae, 144 h, single active compound, 0.8 g/ha, 6 d, read-out: Kill in % after 6 d) it was 20%; in assay [2] (setting [10]), 0%; in assay [3] (48 h, single active compound, 0.8 g/ha, 2 d, read-out: Kill in % after 2 d), 0%; in assay [3] (144 h, single active compound, 0.8 g/ha, 6 d, read-out: Kill in % after 6 d), 0%; in assay [1] (48 h, single active compound, 0.8 g/ha, after 2 d, read-out: Kill in % after 2 d), 0%. In addition, the pest or weed control at 4 g/ha in assay [2] (setting [13]) was 0%; in assay [2] (setting [11]), 0%; in assay [3] (144 h, single active compound, 4 g/ha, 6 d, read-out: Kill in % after 6 d), 0%; in assay [1] (setting [14]), 0%; in assay [1] (144 h, single active compound, 4 g/ha, after 6 d, read-out: Kill in % after 6 d), 0%. For the same molecule, the pest or weed control at 20 g/ha was 0% in assay [2] (setting [13]); 0% in assay [2] (setting [11]); 0% in assay [3] (48 h, single active compound, 2 d, read-out: Kill in % after 2 d); 0% in assay [3] (144 h, single active compound, 6 d, read-out: Kill in % after 6 d); 0% in assay [1] (144 h, single active compound, 20 g/ha, after 6 d, read-out: Kill in % after 6 d). The pest or weed control at 100 g/ha in assay [3] (48 h, single active compound, 100 g/ha, 2 d, read-out: Kill in % after 2 d) amounted to 0%; in assay [3] (144 h, single active compound, 100 g/ha, 6 d, read-out: Kill in % after 6 d), 0%; in assay [1] (144 h, single active compound, 100 g/ha, after 6 d, read-out: Kill in % after 6 d) it was 0%.

On to `Cc1nn(C)c(/C(OC(=O)C(C)(C)C)=C(\C#N)c2ccc(C(C)(C)C)cc2)c1C` [cyenopyrafen, (1E)-2-cyano-2-[4-(1,1-dimethylethyl)phenyl]-1-(1,3,4-trimethyl-1H-pyrazol-5-yl)ethenyl 2,2-dimethylpropanoate], for which the pest or weed control at 100 g/ha in assay [2] (setting [15]) came to 0%. For the same molecule, the pest or weed control at 0.8 g/ha in assay [1] (setting [12]) turned out to be 70%.

Take `COCCOC(=O)C(C#N)(C(=O)c1ccccc1C(F)(F)F)c1ccc(C(C)(C)C)cc1` (stereo not drawn) [cyflumetofen, 2-methoxyethyl alpha-cyano-alpha-[4-(1,1-dimethylethyl)phenyl]-beta-oxo-2-(trifluoromethyl)benzenepropanoate]: in assay [2] (setting [15]), the pest or weed control at 100 g/ha turned out to be 0%. Also, the pest or weed control at 0.8 g/ha in assay [1] (setting [12]) is 50%.

On to `CC(C)c1cc(Oc2ccccc2)cc(C(C)C)c1NC(=S)NC(C)(C)C` [diafenthiuron], for which the pest or weed control at 20 g/ha in assay [2] (setting [11]) turned out to be 0%. For the same molecule, in assay [1] (setting [14]), the pest or weed control at 4 g/ha came to 0%.

For `CN/C(=N\[N+](=O)[O-])NCC1CCOC1` (centres unmarked) [dinotefuran], the pest or weed control at 0.8 g/ha in assay [4] (setting [7]) is 0%; in assay [2] (Phaedon cochleariae, 144 h, read-out: Kill in % after 6 d) it was 0%. Besides, the pest or weed control at 20 g/ha in assay [1] (setting [12]) was found to be 0%.

Regarding `O=C(NC(=O)c1c(F)cccc1F)Nc1ccc(OC(F)(F)C(F)OC(F)(F)F)c(Cl)c1` (centres unmarked) [novaluron], the pest or weed control at 4 g/ha in assay [4] (setting [8]) was 0%. Moreover, in assay [3] (setting [12]), the pest or weed control at 0.8 g/ha was 33%. Also, the pest or weed control at 20 g/ha in assay [1] (setting [12]) came to 0%.

For the molecule `CC1=NNC(=O)N(/N=C/c2cccnc2)C1` [pymetrozine], in assay [4] (setting [8]), the pest or weed control at 0.16 g/ha amounted to 0% and the pest or weed control at 0.8 g/ha came out at 60%. In assay [1] (setting [9]), the pest or weed control at 100 g/ha stood at 0%.

As to `CCc1nn(C)c(C(=O)NCc2ccc(C(C)(C)C)cc2)c1Cl` [tebufenpyrad], in assay [4] (setting [8]), the pest or weed control at 0.16 g/ha is 0% and the pest or weed control at 0.8 g/ha stood at 0%. Besides, the pest or weed control at 20 g/ha in assay [2] (setting [11]) worked out at 0%. Also, in assay [1] (setting [9]), the pest or weed control at 4 g/ha amounted to 40%.

For the molecule `CC1(C)C(C=C(Cl)Cl)C1C(=O)OC(C#N)c1ccc(F)c(Oc2ccccc2)c1` (stereo not drawn) [β-cyfluthrin, betacyfluthrin], in assay [4] (setting [8]), the pest or weed control at 0.0064 g/ha came out at 0%. Moreover, in assay [4] (setting [8]), the pest or weed control at 0.032 g/ha was 0%. The pest or weed control at 0.16 g/ha in assay [2] (Phaedon cochleariae, 144 h, single active compound, 0.16 g/ha, 6 d, read-out: Kill in % after 6 d) turned out to be 0%; in assay [3] (setting [9]), 0%.

For abamectin, the “Kill in % after 6 d” value in assay [4] (single active compound, 0.032 g/ha, 6 d) stood at 0%; in assay [2] (single active compound, 0.16 g/ha, 6 d) it was 0%. Further, the “Kill in % after 2 d” value in assay [1] (single active compound, 0.032 g/ha, after 2 d) was 0%.

On to emamectin benzoate, for which the “Kill in % after 6 d” value in assay [4] (single active compound, 0.0064 g/ha, 6 d) was 0%; in assay [1] (single active compound, 0.032 g/ha, after 6 d) it was 0%. Besides, in assay [3] (single active compound, 0.8 g/ha, 2 d), the “Kill in % after 2 d” value was 83%.

With spinosad, the “Kill in % after 6 d” value was 50% in assay [3] (single active compound, 0.8 g/ha, 6 d) and 20% in assay [1] (setting [6]).
